The values that follow come from US7371877B2, “Glycerol ester derivative” (FUJIFILM Corporation, priority 2002, dated 2008).

A short description of one data set: S9 degradation test. The format is in vitro ADME, rats. The following applies: rat liver S9 Mix, 5 μg/ml, 37° C., HPLC. The protocol: Six-week old male SD rats (Charles River Japan) were purchased and acclimatized for 1 week. After the acclimatization for 1 week, the rats were weighed and bled by decapitation. The liver was extracted and washed three times with chilled 0.15 M KCl. After the washing, wet weight of the liver was determined, and the liver was added with the three-times weight of chilled 0.15 M KCl and placed in a homogenizer. The liver was homogenized, and the homogenate was centrifuged with cooling at 9000 g for 10 minutes. The supernatant obtained was designated S9 and stored below −80° C.
The stored S9 was thawed in running water. The thawed S9 (0.1 ml) was added with 0.4 M MgCl2 (0.02 ml), 1.65 M KCl (0.02 ml) and 0.2 M Na phosphate buffer (pH 7.4, 0.5 ml), added with glucose-6-phosphate (Oriental Yeast), NADPH (Oriental Yeast) and NADH (Oriental Yeast) so as to give a concentration of 4 μM, and added with distilled water to give a total volume of 1 ml (this solution is referred to as “S9 Mix”). S9 Mix (0.1 ml) was added with a test substance so as to give a concentration of 5 μg/ml and shaken at 37° C. under reciprocal movement. The weight of the test substance (unchanged substance) with passage of time in the S9 Mix was measured by HPLC. The test substance was dissolved in dimethyl sulfoxide (Wako Pure Chemical Industry) beforehand. The results are shown as percentage values of the amount of the unchanged substance after 30 minutes based on the amount of the unchanged substance immediately after the addition to S9 Mix, which is taken as 100%. […]

For another data set, the system named is Wistar rats. Nature of the data set: Neurotoxicity test in Wistar rats. The format is in vivo. Further details: key to Neurotoxicity (+: present, −: absent): +: present; −: absent. The protocol:
Six-week old male Wistar rats (Charles River Japan) were purchased, and after quarantine for 1 week, acclimatized in a clean animal cage (air-conditioning: HEPA filter of class 1000, room temperature: 20 to 24° C., humidity: 35 to 60%). […]. The liposome preparation was administered by using physiological saline (Hikari Pharmaceutical) or a glucose solution (Otsuka Pharmaceutical) as a solvent.
In the same manner as in Test Example 4, the neurotoxicity test using a Wistar rat was performed.

In another data set the test system is ICR male mice. Nature of the data set: Toxicity test by continuous administration for three days in mice (MTD). The format is in vivo. The protocol: Six-week old ICR male mice (Charles River Japan) were purchased, and after quarantine for 1 week, acclimatized in a clean animal cage (air-conditioning: HEPA filter of class 1000, room temperature: 20 to 24° C., humidity: 35 to 60%). Then, in order to obtain an MTD value, a liposome preparation was administered from the caudal vein. The liposome preparation was administered by using physiological saline (Hikari Pharmaceutical) or a glucose solution (Otsuka Pharmaceutical) as a solvent. On the basis of the MTD value obtained, the liposome preparation was administered from the caudal vein every three consecutive days in an amount corresponding to ½ of the MTD value (n=3). The symptoms were observed up to 6 hours after each administration, and autopsy was performed after completion of the administration to examine major organs. As a result, no abnormality was recognized. […]

The test system of data set [1] is vascular smooth muscle cells. Nature of the data set: Uptake amount of iodine atoms by vascular smooth muscle cells (mixed culture with macrophage). It counts as cell-based. Particulars: liposome PC 50 nmol + PS 50 nmol + compound 75 nmol; cultured at 37° C. under 5% CO2 for 24 hours. Here is the method:
Dipalmitoyl-PC (Funakoshi, No. 1201-41-0225) and dipalmitoyl-PS (Funakoshi, No. 1201-42-0237) at the ratio shown below were dissolved in chloroform together with each of the iodine compounds of the present invention in an eggplant-shaped flask according to the method described in J. Med. Chem., 25 (12), 1500 (1982) to form a uniform solution. Then, the solvent was evaporated under reduced pressure to form a thin membrane on the bottom of the flask bottom. This thin membrane was dried in vacuum, then added with an appropriate amount of 0.9% physiological saline (Hikari Pharmaceutical, No. 512) and subjected to ultrasonication (No. 3542 probe type oscillator, Branson, 0.1 mW) for 5 minutes to obtain a uniform liposome dispersion. The diameters of the liposomes in the resulting dispersion were measured by using WBC analyzer (A-1042, Nihon Kohden). […] The liposome preparations mentioned below, which were produced by the above method, were each added to a mixed culture system of vascular smooth muscle cells and macrophage described in International Publication WO 01/82977. The cells were cultured at 37° C. under 5% CO2 for 24 hours, and the amounts of the iodine compounds taken up into the vascular smooth muscle cells were each quantified.
In the same manner as in Test Example 1, liposome preparations containing dipalmitoyl-PC (Funakoshi, No. 1201-41-0225) and dipalmitoyl-PS (Funakoshi, No. 1201-42-0237) at the ratio shown below were prepared. […] The liposome preparations produced by the above method were each added to a mixed culture system of vascular smooth muscle cells and macrophage described in International Publication WO 01/82977. The cells were cultured at 37° C. under 5% CO2 for 24 hours, and the amounts of the iodine compounds taken up into the vascular smooth muscle cells were each quantified.

Data set [2] concerns arteriosclerotic lesions in rat aortas. Nature of the data set: X-ray radiography of rat arteriosclerotic lesion. It counts as in vivo. Particulars: liposome preparation, 200 mg/kg from the cervical vein. Here is the method: According to the method described in Invest. Radiol., 18, 275 (1985), arteriosclerotic lesions were formed in rat aortas. The liposome preparation of 1A-4-1 prepared above was carefully administered to the rats with the formed arteriosclerotic lesions were formed from the cervical vein in an amount of 200 mg/kg.
In the same manner as in Test Example 2, the liposome preparation of 1B-1-3 prepared above was carefully administered from the cervical vein to the rats with the formed arteriosclerotic lesions in an amount of 200 mg/kg.

[3] abbreviates: liposome preparation administered from the caudal vein, ICR male mice.
Setting [4] is: liposome preparation from the caudal vein, 1/2 of the MTD value, after pentobarbital, observed up to 4 hours.

Turning to `CN(C)C(=O)CCC(=O)OC(COC(=O)CCCCCCCCCCOc1c(I)cc(I)cc1I)COC(=O)CCCCCCCCCCOc1c(I)cc(I)cc1I` [Compound 1A-4-3], in “S9 degradation test”, the “amount of the unchanged substance after 30 minutes based on the amount immediately after the addition to S9 Mix (100%)” value (shortened to “amount of the unchanged substance … (100%)”) is given as 1A-4-3: 5%.
For `CN(C)C(=O)COC(COC(=O)CCCCCCCCCCOc1c(I)cc(I)cc1I)COC(=O)CCCCCCCCCCOc1c(I)cc(I)cc1I` [Compound 1A-5-3], the “amount of the unchanged substance … (100%)” value in the data set “S9 degradation test” is 1A-5-3: 52%.
With `NC(=O)COC(COC(=O)CCCCCCCCCCOc1c(I)cc(I)cc1I)COC(=O)CCCCCCCCCCOc1c(I)cc(I)cc1I` [Compound 1A-5-2], the “amount of the unchanged substance … (100%)” value in the data set “S9 degradation test” is listed as 1A-5-2: 60%.
As for `O=C(CCCCCCCCCCOc1c(I)cc(I)cc1I)OCC(COC(=O)CCCCCCCCCCOc1c(I)cc(I)cc1I)OC(=O)CN1CCOCC1` [Compound 1A-1-3], the “amount of the unchanged substance … (100%)” value in the data set “S9 degradation test” was 1A-1-3: 63%. Further, the “Neurotoxicity (+: present, −: absent)” value with Wistar rats (rat, in vivo) is recorded as “(−)”. In addition, the MTD in the data set on ICR male mice (setting [3]) worked out at 800 mg/kg. In data set [1], the Uptake amount is recorded as 49.8 × 10^−3 nmol/μg protein.
For `O=C(CCCCCCCCCCOc1c(I)cc(I)cc1I)OCC(COC(=O)CCCCCCCCCCOc1c(I)cc(I)cc1I)OCCO` [Compound 1A-7-5], the “amount of the unchanged substance … (100%)” value in the data set “S9 degradation test” was 1A-7-5: 11%. Further, the Uptake amount in data set [1] is 36.1 × 10^−3 nmol/μg protein.
For the compound `O=C(CCCCCCCCCCOc1c(I)cc(I)cc1I)OCC(COC(=O)CCCCCCCCCCOc1c(I)cc(I)cc1I)OC(=O)CCCN1CCOCC1` [Compound 1A-3-2], the “amount of the unchanged substance … (100%)” value in the data set “S9 degradation test” is reported as 1A-3-2: 60%. The compound also showed an MTD in the data set on ICR male mice (setting [3]) of 800 mg/kg.
On to `NC(=O)CCC(=O)OC(COC(=O)CCCCCCCCCCOc1c(I)cc(I)cc1I)COC(=O)CCCCCCCCCCOc1c(I)cc(I)cc1I` [Compound 1A-4-2], for which, in the data set “S9 degradation test”, the “amount of the unchanged substance … (100%)” value is 1A-4-2: 10%.
As for `O=C(CCCCCCCCCCOc1c(I)cc(I)cc1I)OCC(COC(=O)CCCCCCCCCCOc1c(I)cc(I)cc1I)OC(=O)COC(CO)CO` [Compound 1A-6-9], the “amount of the unchanged substance … (100%)” value in the data set “S9 degradation test” is reported as 1A-6-9: 13%. In the data set with ICR male mice (setting [3]), this compound showed an MTD of 800 mg/kg.
Regarding `O=C(CCCCCCCCCCOc1c(I)cc(I)cc1I)OCC(COC(=O)CCCCCCCCCCOc1c(I)cc(I)cc1I)OCC(=O)N1CCOCC1` [Compound 1A-5-1], the “amount of the unchanged substance … (100%)” value in the data set “S9 degradation test” was 1A-5-1: 9%. Moreover, in the data set with Wistar rats (rat, in vivo), the “Neurotoxicity (+: present, −: absent)” value is “(−)”. In the data set on ICR male mice (setting [3]), this compound yielded an MTD of 800 mg/kg.
As to `CN(C)CC(=O)OC(COC(=O)CCCCCCCCCCOc1c(I)cc(I)cc1I)COC(=O)CCCCCCCCCCOc1c(I)cc(I)cc1I` [Compound 1A-6-3], the “amount of the unchanged substance … (100%)” value in the data set “S9 degradation test” is reported as 1A-6-3: 60%.
As for `CCOCCOCCOCCOC(=O)CCC(=O)OC(COC(=O)CCCCCCCCCCOc1c(I)cc(I)cc1I)COC(=O)CCCCCCCCCCOc1c(I)cc(I)cc1I` [Compound 1A-4-5], in “S9 degradation test”, the “amount of the unchanged substance … (100%)” value is 1A-4-5: 38%. In addition, the “Neurotoxicity (+: present, −: absent)” value with Wistar rats (setting [4]) was “(−)”. The compound further gave an MTD with ICR male mice (mouse, in vivo) of 800 mg/kg.
Take `CCOCCOCCOCCOC(COC(=O)CCCCCCCCCCOc1c(I)cc(I)cc1I)COC(=O)CCCCCCCCCCOc1c(I)cc(I)cc1I` [Compound 1A-7-3]: the “amount of the unchanged substance … (100%)” value in “S9 degradation test” was 1A-7-3: 5%. In addition, the Uptake amount in data set [1] is recorded as 41.8 × 10^−3 nmol/μg protein.
In the case of `O=C(CCCCCCCCCCOc1c(I)cc(I)cc1I)OCC(COC(=O)CCCCCCCCCCOc1c(I)cc(I)cc1I)OC(=O)CCC(=O)N1CCOCC1` [Compound 1A-4-1], the “amount of the unchanged substance … (100%)” value in the data set “S9 degradation test” is reported as 1A-4-1: 59%. Further, the “X-ray radiography images of arteriosclerotic lesions” value in data set [2] (ten minutes after the administration) is “clearly contrasted images of the arteriosclerotic lesions were obtained”. Moreover, the “Neurotoxicity (+: present, −: absent)” value with Wistar rats (rat, in vivo) is recorded as “(−)”. The MTD in the data set with ICR male mice (setting [3]) came out at 1000 mg/kg. The Uptake amount in data set [1] is on record as 31.4 × 10^−3 nmol/μg protein.
In the case of `O=C(O)COC(COC(=O)CCCCCCCCCCOc1c(I)cc(I)cc1I)COC(=O)CCCCCCCCCCOc1c(I)cc(I)cc1I` [Compound 1A-5-4], the “amount of the unchanged substance … (100%)” value in “S9 degradation test” was 1A-5-4: 20%. In addition, the “Neurotoxicity (+: present, −: absent)” value with Wistar rats (setting [4]) is listed as “(−)”. Further, the MTD in the data set on ICR male mice (mouse, in vivo) was found to be 800 mg/kg.
On to `O=C(CCCCCCCCCCOc1c(I)cc(I)cc1I)OCC(COC(=O)CCCCCCCCCCOc1c(I)cc(I)cc1I)OC(=O)CCCCN1CCOCC1` [Compound 1A-3-3], for which, in “S9 degradation test”, the “amount of the unchanged substance … (100%)” value is given as 1A-3-3: 64%. Besides, in the data set with Wistar rats (rat, in vivo), the “Neurotoxicity (+: present, −: absent)” value is “(−)”. The MTD in the data set on ICR male mice (setting [3]) is reported as 1000 mg/kg.
For `O=C(CCCCCCCCCCOc1c(I)cc(I)cc1I)OCC(COC(=O)CCCCCCCCCCOc1c(I)cc(I)cc1I)OC(=O)CCCCCN1CCOCC1` [Compound 1A-3-4], in the data set “S9 degradation test”, the “amount of the unchanged substance … (100%)” value is on record as 1A-3-4: 63%. For the same compound, in the data set with ICR male mice (setting [3]), the MTD was found to be 1000 mg/kg.
Turning to `C[N+](C)(C)CCOP(=O)([O-])OC(COC(=O)CCCCCCCCCCOc1c(I)cc(I)cc1I)COC(=O)CCCCCCCCCCOc1c(I)cc(I)cc1I` [Compound 1B-1-3], in “S9 degradation test”, the “amount of the unchanged substance … (100%)” value is on record as 1B-1-3: 4%. Moreover, the “X-ray radiography images of arteriosclerotic lesions” value in data set [2] (one minute after the administration) was “clearly contrasted images of arteriosclerotic lesions were obtained”. Further, in the data set with Wistar rats (rat, in vivo), the Neurotoxicity entry is “no neurotoxicity was observed”. This compound also showed an MTD in the data set with ICR male mice (setting [3]) of 2000 mg/kg. The Uptake amount in data set [1] was 59.8 × 10^−3 nmol/μg protein.
For `O=C(O)CCC(=O)OC(COC(=O)CCCCCCCCCCOc1c(I)cc(I)cc1I)COC(=O)CCCCCCCCCCOc1c(I)cc(I)cc1I` [Compound 1A-4-4], the “amount of the unchanged substance … (100%)” value in the data set “S9 degradation test” is given as 1A-4-4: 24%. Besides, in the data set with Wistar rats (setting [4]), the “Neurotoxicity (+: present, −: absent)” value is reported as “(−)”. This compound registered an MTD in the data set with ICR male mice (mouse, in vivo) of 800 mg/kg.
`O=C(CCCCCCCCCCOc1c(I)cc(I)cc1I)OCC(COC(=O)CCCCCCCCCCOc1c(I)cc(I)cc1I)OC(=O)CCN1CCOCC1` [Compound 1A-3-1]: the “amount of the unchanged substance … (100%)” value in “S9 degradation test” is listed as 1A-3-1: 58%.
